The test system of experiment [1] is F. tularensis. Briefly: microbe, parasite or virus in culture. The note with it: Francisella tularensis, read-out: MIC against F. tularensis.
In experiment [2] the test system is K. pneumoniae (ATCC700603). Briefly: MIC against K. pneumoniae. The note with it: Klebsiella pneumoniae, ATCC700603, read-out: K. pneumoniae MIC (ATCC700603).
Experiment [3] deals with T1, P. aeruginosa PBP2 (Pseudomonas aeruginosa, UniProt Q9X6V3).
T1 sequence (Q9X6V3 1-646): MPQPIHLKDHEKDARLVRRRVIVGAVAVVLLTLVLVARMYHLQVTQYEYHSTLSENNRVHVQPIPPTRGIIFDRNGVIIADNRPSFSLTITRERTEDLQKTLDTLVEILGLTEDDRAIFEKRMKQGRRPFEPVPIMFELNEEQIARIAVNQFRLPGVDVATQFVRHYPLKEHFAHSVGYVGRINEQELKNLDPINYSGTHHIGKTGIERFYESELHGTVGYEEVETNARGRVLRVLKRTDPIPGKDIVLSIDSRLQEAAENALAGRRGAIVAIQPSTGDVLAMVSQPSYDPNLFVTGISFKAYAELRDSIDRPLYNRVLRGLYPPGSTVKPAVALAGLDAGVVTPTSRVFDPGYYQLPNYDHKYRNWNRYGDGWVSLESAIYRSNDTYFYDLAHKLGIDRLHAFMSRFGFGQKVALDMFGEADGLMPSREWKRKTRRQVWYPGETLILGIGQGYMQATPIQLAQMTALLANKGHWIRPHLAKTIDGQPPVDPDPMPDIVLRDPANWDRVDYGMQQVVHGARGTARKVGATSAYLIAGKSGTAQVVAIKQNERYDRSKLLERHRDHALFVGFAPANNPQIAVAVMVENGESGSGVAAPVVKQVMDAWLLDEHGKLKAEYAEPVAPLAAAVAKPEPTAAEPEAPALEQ
In kind it is biochemical. Particulars: P. aeruginosa PBP2 300 nM, BOCILLIN FL 30 nM, pH 6.2.

Experiment [4] deals with B. mallei. In words: microbe, parasite or virus in culture. The note with it: Burkholderia mallei, read-out: MIC against B. mallei.
Experiment [5] relates to B. anthracis. In words: microbe, parasite or virus in culture. The note with it: Bacillus anthracis, read-out: MIC against B. anthracis.
The subject of experiment [6] is P. aeruginosa WT (PAO1). In words: MIC, CLSI broth microdilution, P. aeruginosa. The format is cell-based. Particulars: Pseudomonas aeruginosa, PAO1; CLSI broth microdilution; read-out: P. aeruginosa WT (PAO1) MIC.
In experiment [7] the test system is Y. pestis. Briefly: microbe, parasite or virus in culture. The note with it: Yersinia pestis, read-out: MIC against Y. pestis.
The target of experiment [8] is P. aeruginosa PBP1a (Pseudomonas aeruginosa, UniProt Q07806). In kind it is biochemical. Particulars: P. aeruginosa PBP1a 60 nM, BOCILLIN FL 30 nM, pH 7.0.
Sequence of P. aeruginosa PBP1a (Q07806 whole entry): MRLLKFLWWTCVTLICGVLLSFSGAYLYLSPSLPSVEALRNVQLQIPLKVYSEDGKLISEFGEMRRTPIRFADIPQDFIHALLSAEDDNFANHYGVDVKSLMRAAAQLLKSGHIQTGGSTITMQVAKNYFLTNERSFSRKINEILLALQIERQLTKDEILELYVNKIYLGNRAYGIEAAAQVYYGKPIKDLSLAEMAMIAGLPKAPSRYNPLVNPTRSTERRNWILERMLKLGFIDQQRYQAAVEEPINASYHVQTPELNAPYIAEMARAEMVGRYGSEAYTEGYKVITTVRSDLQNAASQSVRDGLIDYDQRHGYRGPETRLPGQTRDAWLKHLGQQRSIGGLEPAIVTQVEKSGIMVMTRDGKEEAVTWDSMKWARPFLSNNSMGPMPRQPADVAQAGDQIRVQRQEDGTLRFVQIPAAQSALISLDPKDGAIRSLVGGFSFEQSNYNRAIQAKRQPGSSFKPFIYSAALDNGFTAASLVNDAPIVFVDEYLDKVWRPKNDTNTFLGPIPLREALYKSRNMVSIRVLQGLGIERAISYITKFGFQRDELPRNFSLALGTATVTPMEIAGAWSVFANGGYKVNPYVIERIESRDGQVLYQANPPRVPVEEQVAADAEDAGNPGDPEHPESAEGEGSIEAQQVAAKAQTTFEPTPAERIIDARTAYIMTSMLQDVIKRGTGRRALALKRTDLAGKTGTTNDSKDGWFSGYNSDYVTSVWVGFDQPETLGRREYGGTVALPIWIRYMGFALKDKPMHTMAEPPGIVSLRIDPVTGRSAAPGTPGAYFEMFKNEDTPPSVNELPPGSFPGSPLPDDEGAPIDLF
Experiment [9] deals with B. pseudomallei. Briefly: microbe, parasite or virus in culture. The note with it: Burkholderia pseudomallei, read-out: MIC against B. pseudomallei.
Experiment [10] deals with E. coli (ATCC25922). In words: MIC against E. coli. The note with it: Escherichia coli, ATCC25922, read-out: E. coli MIC (ATCC25922) (mg/L).
The target in experiment [11] is P. aeruginosa PBP3 (Pseudomonas aeruginosa, UniProt G3XD46). The format is biochemical. Particulars: P. aeruginosa PBP3 60 nM, BOCILLIN FL 30 nM, pH 7.0.
Sequence of P. aeruginosa PBP3 (G3XD46 whole entry): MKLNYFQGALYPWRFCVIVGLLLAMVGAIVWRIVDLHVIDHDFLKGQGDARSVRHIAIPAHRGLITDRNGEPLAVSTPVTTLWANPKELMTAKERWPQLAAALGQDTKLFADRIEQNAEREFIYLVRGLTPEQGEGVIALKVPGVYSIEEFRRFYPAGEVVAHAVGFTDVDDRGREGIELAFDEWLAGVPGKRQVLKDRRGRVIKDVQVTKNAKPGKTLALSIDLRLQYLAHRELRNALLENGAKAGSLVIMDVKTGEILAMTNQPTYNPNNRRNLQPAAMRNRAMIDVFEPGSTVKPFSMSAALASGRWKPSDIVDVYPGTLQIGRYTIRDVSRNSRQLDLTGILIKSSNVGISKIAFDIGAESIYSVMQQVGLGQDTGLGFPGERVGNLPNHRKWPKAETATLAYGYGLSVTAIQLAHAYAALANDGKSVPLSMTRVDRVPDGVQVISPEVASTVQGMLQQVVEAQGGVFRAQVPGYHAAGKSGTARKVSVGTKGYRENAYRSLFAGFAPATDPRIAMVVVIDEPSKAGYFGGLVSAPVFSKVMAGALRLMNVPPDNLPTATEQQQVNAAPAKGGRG
In experiment [12] the test system is A. baumannii (ARC3495). In words: MIC against A. baumannii. The note with it: Acinetobacter baumannii, read-out: A. baumannii MIC (ARC3495) (mg/L).

Counter-ions that a name gives are not always drawn. Bounds are passed on as bounds.

`CN/C(=N\O)[C@@H]1c2c(cnn2C)[C@@H]2CN1C(=O)N2OS(=O)(=O)O` (stereo in doubt) [Example 40, Sodium (4R*,8S*)-8-((Z)—N′-hydroxy-N-methylcarbamimidoyl)-1-methyl-6-oxo-4,8-dihydro-1H-4,7-methanopyrazolo[3,4-e][1,3]diazepin-5(6H)-yl hydrogen sulfate]: the MIC in experiment [1] was under 4 µg/mL; in experiment [2], under 8 µg/mL; in experiment [4], under 4 µg/mL; in experiment [5], under 4 µg/mL; in experiment [6], under 8 µg/mL; in experiment [7] it was under 4 µg/mL. Further, the MIC was under 4 µg/mL in experiment [9], under 8 mg/L in [10] and under 8 mg/L in experiment [12]. In addition, the “PBP2 acylation rate, k(on) (M^−1 · s^−1)” value in experiment [3] is “* (* represents a k(on) < 100 M^−1 · s^−1)”. For the same compound, the “PBP1a acylation rate, k(on) (M^−1 · s^−1)” value (from here on “PBP1a acylation rate”) in experiment [8] is “** (** represents a k(on) of 100 to 10,000 M^−1 · s^−1)”. The “PBP3 acylation rate, k(on) (M^−1 · s^−1)” value in [11] is “*** (*** represents a k(on) > 10,000 M^−1 · s^−1)”.

As for `Cn1ncc2c1[C@@H](/C(CNS(N)(=O)=O)=N/O)N1C[C@@H]2N(OS(=O)(=O)O)C1=O` [Example 56, (4R,8S)-8-((E)-1-(hydroxyamino)-2-(sulfamoyl)amino)ethyl)-1-methyl-6-oxo-4,8-dihydro-1H-4,7-methanopyrazolo[3,4-e][1,3]diazepin-5(6H)-yl hydrogen sulfate], the MIC in experiment [2] is over 16 µg/mL; in experiment [6] it was over 16 µg/mL; in experiment [10] it was under 8 mg/L; in [12] it was over 16 mg/L. Also, the “PBP2 acylation rate, k(on) (M^−1 · s^−1)” value in experiment [3] is reported as “* (* represents a k(on) < 100 M^−1 · s^−1)”. Besides, the “PBP1a acylation rate” value in experiment [8] was “** (** represents a k(on) of 100 to 10,000 M^−1 · s^−1)”. For the same compound, the “PBP3 acylation rate, k(on) (M^−1 · s^−1)” value in [11] is given as “** (** represents a k(on) of 100 to 10,000 M^−1 · s^−1)”.

As to `Cn1ncc2c1[C@@H](c1noc(=O)n1C)N1C[C@@H]2N(OS(=O)(=O)O)C1=O` [Example 66, ((4R,8S)-1-methyl-8-(4-methyl-5-oxo-4,5-dihydro-1,2,4-oxadiazol-3-yl)-6-oxo-4,8-dihydro-1H-4,7-methanopyrazolo[3,4-e][1,3]diazepin-5(6H)-yl hydrogen sulfate], the MIC in [2] was over 16 µg/mL; in [6] it was over 16 µg/mL; in experiment [10], under 8 mg/L; in experiment [12] it was over 16 mg/L. In experiment [3], the “PBP2 acylation rate, k(on) (M^−1 · s^−1)” value is “* (* represents a k(on) < 100 M^−1 · s^−1)”. The “PBP1a acylation rate” value in experiment [8] is given as “** (** represents a k(on) of 100 to 10,000 M^−1 · s^−1)”. Besides, the “PBP3 acylation rate, k(on) (M^−1 · s^−1)” value in experiment [11] is given as “** (** represents a k(on) of 100 to 10,000 M^−1 · s^−1)”.

Take `Cn1ncc2c1[C@@H](/C(=N/O)C(N)=O)N1C[C@@H]2N(OS(=O)(=O)O)C1=O` [Example 67, (4R,8S)-8-((Z)-2-amino-1-(hydroxyimino)-2-oxoethyl-1-methyl-6-oxo-4,8-dihydro-1H-4,7-methanopyrazolo[3,4-e][1,3]diazepin-5(6H)-yl hydrogen sulfate]: the MIC in experiment [2] is over 16 µg/mL; in experiment [6], over 16 µg/mL; in experiment [10], under 8 mg/L; in experiment [12], over 16 mg/L. The “PBP2 acylation rate, k(on) (M^−1 · s^−1)” value in experiment [3] is on record as “* (* represents a k(on) < 100 M^−1 · s^−1)”. The “PBP1a acylation rate” value in [8] is “* (* represents a k(on) < 100 M^−1 · s^−1)”. The “PBP3 acylation rate, k(on) (M^−1 · s^−1)” value in experiment [11] is listed as “** (** represents a k(on) of 100 to 10,000 M^−1 · s^−1)”.

With `CN/C(=N\O)[C@@H]1c2c(cnn2CCCCN)[C@@H]2CN1C(=O)N2OS(=O)(=O)O` [Example 68, (4R,8S)-1-(4-aminobutyl)-8-((Z)—N′-hydroxy-N-methylcarbamimidoyl)-6-oxo-4,8-dihydro-1H-4,7-methanopyrazolo[3,4-e][1,3]diazepin-5(6H)-yl hydrogen sulfate], the MIC in [2] is over 16 µg/mL; in experiment [6], under 8 µg/mL; in [10], 8 to 16 mg/L; in experiment [12], 8 to 16 mg/L. The “PBP2 acylation rate, k(on) (M^−1 · s^−1)” value in [3] was “* (* represents a k(on) < 100 M^−1 · s^−1)”. For the same compound, the “PBP1a acylation rate” value in [8] is recorded as “* (* represents a k(on) < 100 M^−1 · s^−1)”. Also, the “PBP3 acylation rate, k(on) (M^−1 · s^−1)” value in experiment [11] is recorded as “** (** represents a k(on) of 100 to 10,000 M^−1 · s^−1)”.

As for `CC(=O)O/N=C(\N)[C@@H]1c2c(cnn2C)[C@@H]2CN1C(=O)N2OS(=O)(=O)O` [Example 70, Pyridium (4R,8S)-8-((Z)—N′-acetoxycarbamimidoyl)-1-methyl-6-oxo-4,8-dihydro-1H-4,7-methanopyrazolo[3,4-e][1,3]diazepin-5(6H)-yl hydrogen sulfate], the MIC was over 16 µg/mL in [2], over 16 µg/mL in experiment [6], 8 to 16 mg/L in [10] and over 16 mg/L in [12]. Also, in [3], the “PBP2 acylation rate, k(on) (M^−1 · s^−1)” value is listed as “* (* represents a k(on) < 100 M^−1 · s^−1)”. Moreover, the “PBP1a acylation rate” value in experiment [8] is recorded as “* (* represents a k(on) < 100 M^−1 · s^−1)”. The “PBP3 acylation rate, k(on) (M^−1 · s^−1)” value in experiment [11] is given as “** (** represents a k(on) of 100 to 10,000 M^−1 · s^−1)”.

Consider `C/C(=N\O)[C@@H]1c2c(cnn2C)[C@@H]2CN1C(=O)N2OS(=O)(=O)O` [Example 71, (4R,8S)-8-((E)-1-(hydroxyimino)ethyl)-1-methyl-6-oxo-4,8-dihydro-1H-4,7-methanopyrazolo[3,4-e][1,3]diazepin-5(6H)-yl hydrogen sulfate], for which the MIC in experiment [2] was over 16 µg/mL; in experiment [6] it was 8 to 16 µg/mL; in experiment [10], 8 to 16 mg/L; in experiment [12], over 16 mg/L. Also, in [3], the “PBP2 acylation rate, k(on) (M^−1 · s^−1)” value was “* (* represents a k(on) < 100 M^−1 · s^−1)”. For the same compound, in [8], the “PBP1a acylation rate” value was “* (* represents a k(on) < 100 M^−1 · s^−1)”. In addition, the “PBP3 acylation rate, k(on) (M^−1 · s^−1)” value in experiment [11] is “** (** represents a k(on) of 100 to 10,000 M^−1 · s^−1)”.

Turning to `CN(N)/C(=N\OS(=O)(=O)O)[C@@H]1c2c(cnn2C)[C@@H]2CN1C(=O)N2OS(=O)(=O)O` [Example 72, ((((Z)-((4R,8S)-1-methyl-6-oxo-5-(sulfooxy)-4,5,6,8-tetrahydro-1H-4,7-methanopyrazolo[3,4-e][1,3]diazepin-8-yl)(1-methylhydrazineyl)methylene)amino)oxy)sulfonic acid], the MIC in experiment [2] is over 16 µg/mL; in [6], over 16 µg/mL; in [10] it was under 8 mg/L; in experiment [12], over 16 mg/L. The “PBP2 acylation rate, k(on) (M^−1 · s^−1)” value in [3] was “* (* represents a k(on) < 100 M^−1 · s^−1)”. In addition, the “PBP1a acylation rate” value in experiment [8] is listed as “** (** represents a k(on) of 100 to 10,000 M^−1 · s^−1)”. The “PBP3 acylation rate, k(on) (M^−1 · s^−1)” value in experiment [11] is reported as “*** (*** represents a k(on) > 10,000 M^−1 · s^−1)”.
